The text below walks through data of a melting point compilation (Tetko et al.).

Consider `CCOC(=O)C(=O)CC(=O)c1ccc2ccccc2c1`, for which the melting point fell in the range of 51 to 53 °C.

`O=C(O)C=Cc1cc(Br)c2c(c1)OCCO2` returned a melting point of 267 to 269 °C.

In the case of `CC(C)(C)c1ccc(CCCCC(=O)O)cc1`, the melting point was in the range of 71 to 73 °C.

`Cn1ccnc1CN1CCC(C(=O)O)CC1` displayed a melting point of 173 to 175 °C.

Turning to `O=C(Nc1ccn[nH]1)OCc1ccccc1`, the melting point was 194 to 196 °C.

`O=C(O)CCCNC(=O)c1ccsc1` displayed a melting point of 235 to 237 °C.

For the compound `O=C(O)C1CCN(S(=O)(=O)c2ccc3ccccc3c2)CC1`, the melting point was 180 to 182 °C.

`Fc1ccc(F)c2c(Cl)ccnc12` yielded a melting point of 154 to 156 °C.

On to `N#Cc1cccc(CN2C(=O)CCc3ccccc32)c1`, for which the melting point is 119 to 121 °C.

As to `Cc1cccc(NC(=O)N2CCC(C(=O)O)CC2)c1`, the melting point fell in the range of 189 to 191 °C.

Compound `N#Cc1cccc(OCCBr)c1` yielded a melting point of 36 to 38 °C.

For the compound `O=C1OC(=O)c2cc(Cl)ccc21`, the melting point was in the range of 96 to 98 °C.

The compound `Fc1ccc(-c2cc[nH]n2)cc1` showed a melting point of 96 to 98 °C.

For the compound `NC(=O)C1(O)Cc2ccccc2C1`, the melting point was in the range of 186 to 188 °C.

Take `Cc1nn(-c2ccc(F)cc2)c2ncc(C(=O)O)cc12`: the melting point was 347 to 349 °C.

Turning to `O=C(Nc1ccc(OC(F)(F)F)cc1)OCC(F)(F)F`, the melting point lay in the range of 64 to 66 °C.

In turn, `CCOC(=O)c1cn[nH]c1C(F)F` came in with a melting point of 64 to 66 °C.

Compound `Nc1ccnn1CC1CCCCC1` displayed a melting point of 59 to 61 °C.

`O=[N+]([O-])CC(c1ccco1)c1c(-c2ccccc2)[nH]c2ccccc12` (stereo not drawn): the melting point fell in the range of 127 to 129 °C.

The compound `Clc1nc(-c2cccnc2)nc2sc3c(c12)CCC3` showed a melting point of 145 to 147 °C.

The compound `NC(=O)c1cc(Oc2cccc(O)c2)ccn1` returned a melting point of 124 to 126 °C.

Compound `CCOc1cc2c(c3[nH]c(C(=O)O)cc13)OC(C)C2` (stereo not drawn) showed a melting point of 226 to 228 °C.

`NC(=O)NC1(C(=O)O)CC1` came in with a melting point of 189 to 191 °C.

Regarding `COC(=O)c1ccccc1CS(=O)(=O)F`, the melting point is 89 to 91 °C.

`Cc1ccc(C(=O)CC#N)s1` registered a melting point of 105 to 107 °C.

As to `CC(O)CNS(=O)(=O)c1ccc(C(=O)O)cc1` (stereo not drawn), the melting point is 208 to 210 °C.

With `O=C(O)CCCn1nnc(-c2ccccc2)n1`, the melting point fell in the range of 83 to 85 °C.

The compound `CC(C)(C)NS(=O)(=O)c1cccc(C(=O)O)c1` registered a melting point of 145 to 147 °C.

`COc1ccc(C(=O)O)cc1S(=O)(=O)N(C)Cc1ccccc1` came in with a melting point of 180 to 182 °C.

Consider `CC(=O)Nc1cccc(I)c1`, for which the melting point lay within 123 to 125 °C.

Regarding `COCc1c(C(=O)O)oc2ccccc12`, the melting point was 119 to 121 °C.

As for `BrCc1cc(Br)c2c(c1)OCO2`, the melting point lay within 123 to 125 °C.

Take `CC(C)(C)OC(=O)N1CC(OCC(=O)O)C1`: the melting point was in the range of 93 to 95 °C.

The compound `CC1(c2ccc(C(N)=O)cc2)NC(=O)NC1=O` (stereo not drawn) registered a melting point of 163 to 165 °C.

Compound `Brc1ccc(-c2nccs2)cc1` showed a melting point of 45 to 47 °C.

In turn, `O=C(O)c1cc2ccccc2c(Nc2ccccc2F)n1` came in with a melting point of 224 to 226 °C.

In the case of `NNc1ccc(S(=O)(=O)N2CCC(Cc3ccccc3)CC2)cn1`, the melting point was in the range of 185 to 187 °C.

Take `BrCCCOc1ccc2ccccc2c1`: the melting point fell in the range of 56 to 58 °C.

The compound `Nc1ccc2nc(N3CCCC3)sc2c1` returned a melting point of 201 to 203 °C.

`O=C1NCCN1c1ccccc1[N+](=O)[O-]` returned a melting point of 153 to 155 °C.

Regarding `NC(=O)c1cccc([N+](=O)[O-])c1O`, the melting point fell in the range of 154 to 156 °C.

`Nc1c(Cl)cc(S(=O)(=O)Cl)cc1Cl` showed a melting point of 134 to 136 °C.

`Cc1csc(-c2cccc(C(=O)O)c2)n1` had a melting point of 192 to 194 °C.

`O=C(O)C1(c2ccccc2)CCOCC1`: the melting point fell in the range of 128 to 130 °C.

In turn, `O=C(O)c1ccc(NC(=O)c2ccc(Br)cc2)cc1` returned a melting point of 327 to 329 °C.

Regarding `BrC1=CC2C(C3C=CC2(Br)C32OCCO2)C12OCCO2` (stereo not drawn), the melting point lay within 178 to 180 °C.

In turn, `O=C1NC2(CCCC2)C(=O)N1CCBr` displayed a melting point of 97 to 99 °C.

In turn, `CN(C)Cc1nc(Cl)c2c(-c3ccccc3)csc2n1` showed a melting point of 114 to 116 °C.

For the compound `O=C(O)C1CSC(c2cccs2)N1` (stereo not drawn), the melting point fell in the range of 148 to 150 °C.

`OC(CC1COCCN1)c1cccs1` (stereo not drawn) displayed a melting point of 109 to 111 °C.

Turning to `Nc1nncc(-c2ccc(OC(F)F)cc2)n1`, the melting point was 223 to 225 °C.

Compound `CC(N)c1ccc(OCc2ccc(F)cc2)cc1` (stereo not drawn) showed a melting point of 52 to 54 °C.

`NC(NO)=C1C=CC=NC1=O` had a melting point of 176 to 178 °C.

As to `Nc1ccccc1CN1CCc2ccccc21`, the melting point is 75 to 77 °C.

`Clc1cc(Cl)nc(-c2ccccn2)n1` yielded a melting point of 142 to 144 °C.

For the compound `Nc1ncc(-c2cccc(F)c2)s1`, the melting point lay in the range of 168 to 170 °C.

Compound `COc1ccc(CNC(=O)c2c[nH]nc2N)cc1` had a melting point of 196 to 198 °C.

Compound `COc1ccc(C2(C(=O)O)CCC2)cc1` registered a melting point of 95 to 97 °C.

Regarding `O=C(O)c1ccc(CNC(=O)C23CC4CC(CC(C4)C2)C3)cc1`, the melting point is 195 to 197 °C.

In turn, `N=C(NN)c1cc(Cl)ccn1` had a melting point of 248 to 250 °C.

`O=C(O)/C=C/C1=C(Cl)c2ccccc2S1(=O)=O` returned a melting point of 266 to 268 °C.

`O=C(O)c1cccc(OCc2cccnc2)c1`: the melting point was in the range of 195 to 197 °C.

Compound `O=C1CCCc2[nH]c(=O)c(C(=O)O)cc21` showed a melting point of 289 to 291 °C.

As to `Cc1c(NS(=O)(=O)c2ccc(N)c(N)c2)c(=O)n(-c2ccccc2)n1C`, the melting point is 233 to 235 °C.

In turn, `NC(=O)NC(CC(=O)O)c1ccccc1Cl` (stereo not drawn) came in with a melting point of 163 to 165 °C.

In turn, `COc1cc(C(=O)O)c(N)cc1OC(F)F` gave a melting point of 152 to 154 °C.

Compound `COc1ccc(S(N)(=O)=O)cc1[N+](=O)[O-]` returned a melting point of 139 to 141 °C.

`Cn1cccc1C(=O)NC(=O)CCl` returned a melting point of 139 to 141 °C.

`CC(C)(C)OC(=O)N1C2CCC1CC(CC(=O)O)C2` (stereo not drawn): the melting point was 104 to 106 °C.

As for `Cc1c(C(=O)O)sc2nc(C(F)(F)F)ccc12`, the melting point was 265 to 267 °C.

In turn, `Cc1ccc(F)c(N2CCCC(Br)C2=O)c1` (stereo not drawn) displayed a melting point of 74 to 76 °C.

`CC(=O)Oc1ccc(-c2ccc(C(=O)O)cc2)cc1` came in with a melting point of 275 to 277 °C.

As to `O=C(O)C1CCCN1C(=O)c1cc(Cl)ccc1Cl` (stereo not drawn), the melting point lay in the range of 194 to 196 °C.

As for `NC(=O)c1cc(OC2CCNCC2)ccn1`, the melting point lay within 129 to 131 °C.

Take `O=C1COc2ccncc2N1`: the melting point is 268 to 270 °C.

For the compound `c1nc(N2CCNCC2)c2ccsc2n1`, the melting point lay within 71 to 73 °C.

`O=C(CCl)Nc1nnc(-c2ccccc2)o1` returned a melting point of 219 to 221 °C.

Take `CCOC(=O)C(NC(=O)C(C)C)C(=O)OCC`: the melting point is 75 to 77 °C.

Take `CCCOc1ccc(/C=C/C(=O)O)cc1`: the melting point fell in the range of 179 to 181 °C.

`CC(C)C(Br)C(=O)Nc1ccccc1F` (stereo not drawn) came in with a melting point of 98 to 100 °C.

Regarding `Cc1nnc(-c2cccc(CN)c2)[nH]1`, the melting point is 199 to 201 °C.

Turning to `CC(C)(C)C(N)CN1CCc2ccccc2C1` (stereo not drawn), the melting point was 62 to 64 °C.

In turn, `Cc1nc(-c2ccccn2)sc1C(=O)O` yielded a melting point of 235 to 237 °C.

`O=Cc1cc(Cl)ccc1OCc1cccnc1` gave a melting point of 79 to 81 °C.

As for `Nc1cccc(-c2nccn2CC(=O)O)c1`, the melting point was 249 to 251 °C.

With `O=C(O)C1CC(=O)N(C2CCCCCC2)C1` (stereo not drawn), the melting point is 165 to 167 °C.

For `CC(C)C(C#N)NC(=O)OC(C)(C)C` (stereo not drawn), the melting point lay in the range of 73 to 75 °C.

Compound `Clc1ccc(OCC2CO2)cc1` (stereo not drawn) showed a melting point of 31 to 33 °C.

For the compound `CC1CNC(=O)N(c2ccccc2)C1=O` (stereo not drawn), the melting point was 174 to 176 °C.

With `O=C(O)Cn1cnc2ccc(Br)cc2c1=O`, the melting point is 277 to 279 °C.

The compound `CCC(=O)N1CCc2cc(C(=O)CCl)ccc21` showed a melting point of 201 to 203 °C.

With `CC(=O)CC(=O)Nc1cccc(Br)c1`, the melting point is 108 to 110 °C.

As to `O=C(O)CNS(=O)(=O)c1ccc2ccccc2c1`, the melting point lay in the range of 180 to 182 °C.

`NC(=S)NC1CCOc2ccccc21` (stereo not drawn) showed a melting point of 178 to 180 °C.

Regarding `NCCCCN1CCN(CCO)CC1`, the melting point is 90 to 92 °C.

The compound `CCC(=O)NC=C(Cl)Cl` displayed a melting point of 93 to 95 °C.

In the case of `C#CCN1CCCCC1C(=O)NC` (stereo not drawn), the melting point was 116 to 118 °C.

For the compound `Nc1nnc(C2COc3ccccc3O2)o1` (stereo not drawn), the melting point was in the range of 210 to 212 °C.

In the case of `CS(=O)(=O)Cc1c(C(=O)O)sc2ccccc12`, the melting point lay in the range of 276 to 278 °C.

`CN(Cc1ccccc1)S(=O)(=O)c1ccc(N)cc1` yielded a melting point of 127 to 131 °C.

`CCNc1nc(S)nc2ccccc12` yielded a melting point of 283 to 285 °C.

In turn, `Cc1cccc2c1CN(C(=O)OC(C)(C)C)CCN2` showed a melting point of 95 to 97 °C.

Compound `O=C(O)C1CC(=O)N(C2CCS(=O)(=O)C2)C1` (stereo not drawn) had a melting point of 255 to 257 °C.

The compound `O=C(O)C1(N2CCOCC2)CCC1` registered a melting point of 209 to 211 °C.

With `CS(=O)(=O)N1CCC(N=C=O)CC1`, the melting point lay in the range of 84 to 86 °C.

For the compound `O=C(O)c1ccc(Sc2ccc(Cl)cc2)o1`, the melting point lay in the range of 161 to 163 °C.

`CN(C)C(=O)c1ccc(Cl)c(NC(=O)OCC(F)(F)F)c1`: the melting point lay within 96 to 98 °C.

Consider `COc1cc(C#N)ccc1Oc1ccc(N)cc1`, for which the melting point lay in the range of 123 to 125 °C.

`O=c1cc(O)nc(S)n1-c1ccc(Cl)cc1` registered a melting point of 188 to 190 °C.

Turning to `Nc1ccccc1C(=O)Nc1cccc(Cl)c1`, the melting point is 131 to 135 °C.

The compound `CC(=O)c1cc2c(cc1O)OCO2` showed a melting point of 114 to 116 °C.

Take `O=C(O)CCNC(=O)c1ccc2[nH]nnc2c1`: the melting point lay within 229 to 231 °C.

Consider `Oc1ccc2cccc(O)c2n1`, for which the melting point lay in the range of 293 to 295 °C.

On to `CCCOc1ccc(OCC(=O)O)cc1`, for which the melting point fell in the range of 106 to 108 °C.

On to `NC(=O)c1cccc2ncccc12`, for which the melting point was 228 to 230 °C.

`CCS(=O)(=O)c1ccc2oc(S)nc2c1` gave a melting point of 188 to 190 °C.

Compound `CCOC(=O)c1sc(-c2cccc([N+](=O)[O-])c2)cc1N` displayed a melting point of 166 to 168 °C.

`O=C(O)CCNC(=O)c1ccncc1` registered a melting point of 239 to 241 °C.

By melting point is commonly meant the temperature, or range, at which the solid turns liquid.
